Measurements as given in PMC6451745, “Development and dosimetry of ^203Pb/^212Pb-labelled PSMA ligands: bringing “the lead” into PSMA-targeted alpha therapy?” (European Journal of Nuclear Medicine and Molecular Imaging, 2019).
Where “and” joins values, the source holds several entries; their conditions need not be identical. Equal entries are not always repeated. One block for each molecule: values may come before it.

Assays:
[1] = tested on: patients with castration-resistant metastasized prostate cancer; assay: ^203Pb-CA012 dosimetry from planar whole-body scans in patients (QDOSE/OLINDA); type: in vivo, human; details: diagnostic ^203Pb, two patients, male adult phantom in OLINDA
Description: OLINDA calculations were performed for all nuclides individually.

C4-2 tumour-bearing mice = assay: Biodistribution (organ distribution) in tumour-bearing mice; type: in vivo; details: 0.025 nmol i.v., C4-2 tumour-bearing mice, n = 3
Description: The in vivo experiments were carried out in accordance with the laws on animal welfare of the Federal Republic of Germany. For imaging and biodistribution studies, male BALB/c nu/nu mice (20–25 g; Charles River) bearing C4-2 tumour xenografts were used. The mice were inoculated subcutaneously in the right trunk with 5 × 10^6 C4-2 cells in 50% Matrigel in Opti-MEM (1×). For small-animal imaging the mice were anaesthetized with 2% sevoflurane, and then 0.1 nmol (1.0 MBq) of the respective ^203Pb ligand was injected into a tail vein. Serial planar scans were performed using a Gamma Imager-sct (Biospace Lab, Paris, France) with a parallel collimator (35 mm/1.8 mm/0.2 mm) after 10 min, 1 h, 4 h and 24 h. Based on the imaging results, compound CA012 was chosen for biodistribution studies. Experiments were performed in triplicate. For biodistribution, 0.025 nmol (1 MBq) of labelled compound per mouse was administered by injection into a tail vein. After 10 min, 1 h, 4 h and 24 h the mice were killed, the organs were dissected and weighed, and activity was measured using a gamma counter (Packard Cobra Auto-gamma). The organ uptakes were calculated as the percentage of the injected dose per gram of tissue (%ID/g).

C4-2 cells = assay: Determination of specific internalization ratio; type: cell-based; details: for Specific lysate (specific internalization): ^203Pb-labelled compound 30 nM, 45 min, 2-PMPA blocking subtracted, mean ± SD n = 3
Description: In vitro and in vivo experiments were performed using the PSMA-positive C4-2 cell line, a subline of the LNCaP (lymph node carcinoma of the prostate) cell line (CRL-3314; American Type Culture Collection). C4-2 cells were cultivated in RPMI-1640 (PAN Biotech) supplemented with 10% fetal calf serum and stable glutamine (PAN Biotech). Cells were grown at 37 °C and incubated in humidified air equilibrated with 5% CO2.
For determination of the specific internalization ratio, 24-well plates were incubated for 20 min with 0.1% poly-L-lysine in PBS at room temperature and washed once with PBS. In the next step, 1 ml RPMI containing 1 × 10^5 C4-2 cells was added to each well and incubated overnight. The conditions during the experiment for each compound were: incubation at 37 °C or 4 °C with or without receptor blocking via 2-(phosphonomethyl)pentanedioic acid (2-PMPA; Axxora) at a final concentration of 500 μM. The cells were then incubated with 250 μl of a 30 nM solution of ^203Pb-labelled compound. The plates were incubated either for 45 min in a water bath at 37 °C or on ice at 4 °C. The cells were then washed three times with 1 ml ice-cold PBS and incubated with 0.5 ml glycine (50 mM in HCl, pH 2.8) for 5 min. After an additional washing step with 1 ml ice-cold PBS, the cells were lysed with 0.5 ml 0.3 M NaOH and collected, and the radioactivity was measured with a gamma counter for 1 min. The specific cellular uptake was determined as the percentage of initially added radioactivity bound per 10^6 cells (%IA/10^6 cells) by subtraction of the respective uptake under blocking conditions. All experiments were performed in triplicate.

- Effective dose [1]: 2.4 mSv/100 MBq
- Effective dose equivalent [1]: 3.6 mSv/100 MBq
- Equivalent dose, Adrenals [1]: 2.8 mSv/100 MBq
- Equivalent dose, Brain [1]: 1.2 mSv/100 MBq
- Equivalent dose, Breasts [1]: 1.1 mSv/100 MBq
- Equivalent dose, Gallbladder [1]: 2.8 mSv/100 MBq
- Equivalent dose, Heart [1]: 1.8 mSv/100 MBq
- Equivalent dose, Kidneys [1]: 18.1 mSv/100 MBq
- Equivalent dose, Liver [1]: 4.3 mSv/100 MBq
- Equivalent dose, Lower large intestine [1]: 2.0 mSv/100 MBq
- Equivalent dose, Lungs [1]: 1.6 mSv/100 MBq
- Equivalent dose, Muscle [1]: 1.5 mSv/100 MBq
- Equivalent dose, Osteogenic cells [1]: 3.7 mSv/100 MBq
- Equivalent dose, Pancreas [1]: 2.8 mSv/100 MBq
- Equivalent dose, Red marrow [1]: 1.8 mSv/100 MBq
- Equivalent dose, Skin [1]: 1.0 mSv/100 MBq
- Equivalent dose, Small intestine [1]: 2.1 mSv/100 MBq
- Equivalent dose, Spleen [1]: 6.7 mSv/100 MBq
- Equivalent dose, Stomach [1]: 2.0 mSv/100 MBq
- Equivalent dose, Testes [1]: 1.4 mSv/100 MBq
- Equivalent dose, Thymus [1]: 1.4 mSv/100 MBq
- Equivalent dose, Thyroid [1]: 1.4 mSv/100 MBq
- Equivalent dose, Total body [1]: 1.7 mSv/100 MBq
- Equivalent dose, Upper large intestine [1]: 2.1 mSv/100 MBq
- Equivalent dose, Urinary bladder [1]: 6.7 mSv/100 MBq
- Organ distribution, Blood (C4-2 tumour-bearing mice; 10 min): 5.37 ± 1.95 % ID/g
- Organ distribution, Brain (C4-2 tumour-bearing mice; 10 min): 0.14 ± 0.04 % ID/g
- Organ distribution, Heart (C4-2 tumour-bearing mice; 10 min): 1.78 ± 0.66 % ID/g
- Organ distribution, Kidneys (C4-2 tumour-bearing mice; 10 min): 26.97 ± 8.74 % ID/g
- Organ distribution, Liver (C4-2 tumour-bearing mice; 10 min): 1.25 ± 0.43 % ID/g
- Organ distribution, Lung (C4-2 tumour-bearing mice; 10 min): 4.31 ± 1.19 % ID/g
- Organ distribution, Muscle (C4-2 tumour-bearing mice; 10 min): 1.20 ± 0.43 % ID/g
- Organ distribution, Small intestine (C4-2 tumour-bearing mice; 10 min): 1.75 ± 0.48 % ID/g
- Organ distribution, Spleen (C4-2 tumour-bearing mice; 10 min): 1.97 ± 1.07 % ID/g
- Organ distribution, Tumor (C4-2 tumour-bearing mice; 10 min): 12.33 ± 1.92 % ID/g
- Organ distribution, Blood (C4-2 tumour-bearing mice; 1 h): 0.26 ± 0.10 % ID/g
- Organ distribution, Brain (C4-2 tumour-bearing mice; 1 h): 0.02 ± 0.00 % ID/g
- Organ distribution, Heart (C4-2 tumour-bearing mice; 1 h): 0.10 ± 0.03 % ID/g
- Organ distribution, Kidneys (C4-2 tumour-bearing mice; 1 h): 5.08 ± 2.45 % ID/g
- Organ distribution, Liver (C4-2 tumour-bearing mice; 1 h): 0.20 ± 0.10 % ID/g
- Organ distribution, Lung (C4-2 tumour-bearing mice; 1 h): 0.33 ± 0.13 % ID/g
- Organ distribution, Muscle (C4-2 tumour-bearing mice; 1 h): 0.05 ± 0.03 % ID/g
- Organ distribution, Small intestine (C4-2 tumour-bearing mice; 1 h): 0.10 ± 0.04 % ID/g
- Organ distribution, Spleen (C4-2 tumour-bearing mice; 1 h): 0.16 ± 0.08 % ID/g
- Organ distribution, Tumor (C4-2 tumour-bearing mice; 1 h, listed as 203Pb-PSMA-CA012): 8.4 ± 3.7 % ID/g and 8.37 ± 3.67 % ID/g
- Organ distribution, Blood (C4-2 tumour-bearing mice; 4 h): 0.05 ± 0.01 % ID/g
- Organ distribution, Brain (C4-2 tumour-bearing mice; 4 h): 0.02 ± 0.01 % ID/g
- Organ distribution, Heart (C4-2 tumour-bearing mice; 4 h): 0.04 ± 0.02 % ID/g
- Organ distribution, Kidneys (C4-2 tumour-bearing mice; 4 h): 1.61 ± 0.28 % ID/g
- Organ distribution, Liver (C4-2 tumour-bearing mice; 4 h): 0.09 ± 0.01 % ID/g
- Organ distribution, Lung (C4-2 tumour-bearing mice; 4 h): 0.10 ±0.03 % ID/g
- Organ distribution, Muscle (C4-2 tumour-bearing mice; 4 h): 0.06 ± 0.03 % ID/g
- Organ distribution, Small intestine (C4-2 tumour-bearing mice; 4 h): 0.07 ± 0.05 % ID/g
- Organ distribution, Spleen (C4-2 tumour-bearing mice; 4 h): 0.07 ± 0.01 % ID/g
- Organ distribution, Tumor (C4-2 tumour-bearing mice; 4 h): 7.81 ±0.86 % ID/g
- Organ distribution, Blood (C4-2 tumour-bearing mice; 24 h): 0.03 ± 0.00 % ID/g
- Organ distribution, Brain (C4-2 tumour-bearing mice; 24 h): 0.01 ± 0.00 % ID/g
- Organ distribution, Heart (C4-2 tumour-bearing mice; 24 h): 0.02 ± 0.00 % ID/g
- Organ distribution, Kidneys (C4-2 tumour-bearing mice; 24 h): 0.89 ± 0.14 % ID/g
- Organ distribution, Liver (C4-2 tumour-bearing mice; 24 h): 0.10 ± 0.02 % ID/g
- Organ distribution, Lung (C4-2 tumour-bearing mice; 24 h): 0.05 ± 0.01 % ID/g
- Organ distribution, Muscle (C4-2 tumour-bearing mice; 24 h): 0.02 ± 0.00 % ID/g
- Organ distribution, Small intestine (C4-2 tumour-bearing mice; 24 h): 0.02 ± 0.00 % ID/g
- Organ distribution, Spleen (C4-2 tumour-bearing mice; 24 h): 0.07 ± 0.02 % ID/g
- Organ distribution, Tumor (C4-2 tumour-bearing mice; 24 h): 3.30 ± 1.60 % ID/g
SMILES: NC(=O)CN1CCN(CC(N)=O)CCN(CC(=O)NCC2CCC(C(=O)NC(Cc3ccc4ccccc4c3)C(=O)NCCCC[C@H](NC(=O)N[C@@H](CCC(=O)O)C(=O)O)C(=O)O)CC2)CCN(CC(N)=O)CC1.[203Pb+2] (stereo partly drawn) [^203Pb-CA012]
- specific ligand-induced internalization (C4-2 cells): ~16 %IA/10^6 cells
- Specific lysate (specific internalization) (C4-2 cells): 15.6 ± 2.1 %IA/10^6 cells

SMILES: NC(=O)CN1CCN(CC(N)=O)CCN(CC(N)=O)C(Cc2ccc(NC(=S)NCC3CCC(C(=O)NC(Cc4ccc5ccccc5c4)C(=O)NCCCC[C@H](NC(=O)N[C@@H](CCC(=O)O)C(=O)O)C(=O)O)CC3)cc2)CN(CC(N)=O)CC1.[203Pb+2] (stereo partly drawn) [^203Pb-CA009]
- specific ligand-induced internalization (C4-2 cells): approximately 27 %ID/10^6 cells
- Specific lysate (specific internalization) (C4-2 cells): 27.4 ± 2.4 %IA/10^6 cells
